# Measurements published in publication PMC9226124, “Macrocycle-stabilization of its interaction with 14-3-3 increases plasma membrane localization and activity of CFTR” (Nature Communications, 2022).
# Values joined by “and” are separate entries in the source; they are usually repeats but may differ in a detail not shown here. Equal values may be shown once.
# What was measured:
# [1] = target: T1, F508del-CFTR in BHK cells (Homo sapiens, UniProt P13569, DEL508-508); test: FLIPR membrane potential (FMP) assay; type: cell-based, hamster; conditions: individual replicates
# T1 construct: expressed in transfected cells; host or cells: baby hamster kidney (BHK) cells
# T1 sequence (P13569 with tags, fused parts or gaps DEL508-508): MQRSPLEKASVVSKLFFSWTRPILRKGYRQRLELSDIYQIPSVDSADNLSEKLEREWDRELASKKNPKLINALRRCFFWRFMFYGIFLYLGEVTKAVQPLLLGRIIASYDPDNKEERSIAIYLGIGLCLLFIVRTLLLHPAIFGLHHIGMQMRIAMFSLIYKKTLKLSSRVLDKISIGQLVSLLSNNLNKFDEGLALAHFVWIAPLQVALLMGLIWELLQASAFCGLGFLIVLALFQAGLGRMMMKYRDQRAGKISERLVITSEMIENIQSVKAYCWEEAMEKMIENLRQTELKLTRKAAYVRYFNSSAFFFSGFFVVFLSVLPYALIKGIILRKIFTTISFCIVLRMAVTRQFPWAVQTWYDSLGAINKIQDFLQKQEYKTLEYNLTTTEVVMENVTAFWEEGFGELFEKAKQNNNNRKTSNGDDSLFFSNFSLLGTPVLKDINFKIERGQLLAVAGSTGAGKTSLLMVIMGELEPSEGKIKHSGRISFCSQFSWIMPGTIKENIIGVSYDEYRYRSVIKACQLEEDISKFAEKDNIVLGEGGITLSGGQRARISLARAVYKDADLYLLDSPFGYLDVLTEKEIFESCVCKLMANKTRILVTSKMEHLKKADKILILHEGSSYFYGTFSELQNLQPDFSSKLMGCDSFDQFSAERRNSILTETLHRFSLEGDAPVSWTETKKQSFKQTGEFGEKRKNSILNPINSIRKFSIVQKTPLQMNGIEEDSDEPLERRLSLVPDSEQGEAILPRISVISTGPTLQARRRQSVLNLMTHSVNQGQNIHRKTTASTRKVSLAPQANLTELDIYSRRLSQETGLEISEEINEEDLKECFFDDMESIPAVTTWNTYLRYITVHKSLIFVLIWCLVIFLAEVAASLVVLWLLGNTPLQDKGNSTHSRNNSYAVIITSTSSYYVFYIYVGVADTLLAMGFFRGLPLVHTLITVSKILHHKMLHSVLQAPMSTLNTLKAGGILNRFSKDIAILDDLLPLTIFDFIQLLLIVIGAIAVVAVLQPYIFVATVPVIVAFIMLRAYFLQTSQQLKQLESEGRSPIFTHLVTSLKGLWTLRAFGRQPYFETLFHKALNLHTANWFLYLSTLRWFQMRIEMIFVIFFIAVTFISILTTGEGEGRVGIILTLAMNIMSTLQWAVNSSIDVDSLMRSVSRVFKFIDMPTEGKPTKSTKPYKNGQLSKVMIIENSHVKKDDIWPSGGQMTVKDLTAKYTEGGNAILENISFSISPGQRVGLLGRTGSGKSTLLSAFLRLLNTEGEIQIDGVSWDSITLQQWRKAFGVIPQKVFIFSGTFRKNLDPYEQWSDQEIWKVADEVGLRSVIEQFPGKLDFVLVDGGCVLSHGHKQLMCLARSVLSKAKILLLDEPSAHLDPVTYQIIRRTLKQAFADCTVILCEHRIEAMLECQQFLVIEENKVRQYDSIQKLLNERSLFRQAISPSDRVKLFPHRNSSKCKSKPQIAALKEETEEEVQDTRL
# Method in brief: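 BHK cells expressing F508del-CFTR were incubated 24 h at 37 °C with 20 μM compound. FMP dye plus genistein was added in low-Cl⁻ buffer (pH 7.4), then forskolin after a 2 min baseline. Fluorescence was monitored 5 min; the value is the rate of fluorescence change.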
# [2] = target: T2, 14-3-3β/CFTRpS753pS768 complex (Homo sapiens, UniProt P13569+P31946); test: FP assay, 14-3-3β titration at constant compound concentration (apparent KD); type: binding; conditions: for FP signal, 14-3-3β titration: replicates
# T2 construct: His6 (cleaved yes); made in house; peptide synthetic
# T2 sequence (P31946 whole entry): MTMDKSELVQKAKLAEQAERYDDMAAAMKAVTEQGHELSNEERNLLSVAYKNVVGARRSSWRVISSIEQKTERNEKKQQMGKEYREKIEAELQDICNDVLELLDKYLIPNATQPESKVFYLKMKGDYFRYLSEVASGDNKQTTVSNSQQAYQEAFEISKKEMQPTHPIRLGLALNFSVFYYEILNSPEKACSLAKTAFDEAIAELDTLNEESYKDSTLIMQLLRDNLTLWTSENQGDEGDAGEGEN
# T2 sequence (P13569 747-774 limits assumed): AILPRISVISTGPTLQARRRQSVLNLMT
# Experimental: FC-A (100 µM) was added as a positive control and DMSO as the negative control. […] Background polarization was subtracted from all values, n = 3 technical replicates. […] Source data are provided as a Source Data file. […]
# The FITC-labeled peptides were dissolved in FP buffer (10 mM HEPES pH 7.4, 150 mM NaCl, 0.1% Tween20, 1 mg/mL BSA) to a final concentration of 100 nM or 10 nM. […] The dilution series were made in 384 Corning Black Round Bottom well plates and their polarization was measured with a Tecan Infinite F500 plate reader (ex. = 485 nm, em. = 535 nm). The method of fitting of the curves was: “log(agonist) vs. response – Variable slope (four parameters)” from GraphPad Prism. The equation is Y = Bottom + (Top-Bottom)/(1 + 10^((LogEC50-X)*HillSlope)).
# from the hit validation library.
# f the compound, 100 µM FC-A, or both compound and FC-A, 100 µM each. Background polarization was subtracted f
# rom all values, n=3 technical replicates.
# Source data are provided as a Source Data file.
# [3] = 14-3-3β 7.62939e-9 M, FC-A + CY compound
# [4] = 14-3-3β 7.62939e-9 M, compound 100 μM
# [5] = 14-3-3β 1.52588e-8 M, FC-A + CY compound
# [6] = 14-3-3β 1.52588e-8 M, compound 100 μM
# [7] = 14-3-3β 3.05176e-8 M, FC-A + CY compound
# [8] = 14-3-3β 3.05176e-8 M, compound 100 μM
# [9] = 14-3-3β 6.10352e-8 M, FC-A + CY compound
# [10] = 14-3-3β 6.10352e-8 M, compound 100 μM
# [11] = 14-3-3β 1.2207e-7 M, FC-A + CY compound
# [12] = 14-3-3β 1.2207e-7 M, compound 100 μM
# [13] = 14-3-3β 2.44141e-7 M, FC-A + CY compound
# [14] = 14-3-3β 2.44141e-7 M, compound 100 μM
# [15] = 14-3-3β 4.88281e-7 M, FC-A + CY compound
# [16] = 14-3-3β 4.88281e-7 M, compound 100 μM
# [17] = 14-3-3β 9.76563e-7 M, FC-A + CY compound
# [18] = 14-3-3β 9.76563e-7 M, compound 100 μM
# [19] = 14-3-3β 1.95313e-6 M, FC-A + CY compound
# [20] = 14-3-3β 1.95313e-6 M, compound 100 μM
# [21] = 14-3-3β 3.90625e-6 M, FC-A + CY compound
# [22] = 14-3-3β 3.90625e-6 M, compound 100 μM
# [23] = 14-3-3β 7.8125e-6 M, FC-A + CY compound
# [24] = 14-3-3β 7.8125e-6 M, compound 100 μM
# [25] = 14-3-3β 1.5625e-5 M, FC-A + CY compound
# [26] = 14-3-3β 1.5625e-5 M, compound 100 μM
# [27] = 14-3-3β 3.125e-5 M, FC-A + CY compound
# [28] = 14-3-3β 3.125e-5 M, compound 100 μM
# [29] = 14-3-3β 6.25e-5 M, FC-A + CY compound
# [30] = 14-3-3β 6.25e-5 M, compound 100 μM
# [31] = 14-3-3β 0.000125 M, FC-A + CY compound
# [32] = 14-3-3β 0.000125 M, compound 100 μM
structure (smiles),measurement,setting,value
N=C(N)NCCCC1NC(=O)C(CCC(N)=O)NC(=O)C(CCCNC(=N)N)NC(=O)C2Cc3ccccc3CN2Cc2cccc(c2)-c2ccccc2CNC1=O (centres unmarked) [CY007493],FMP assay signal (Fig5b),[1],74.143 and 78.429 and 43.607 and 72 and 65.679 and 76.179
same,"FP signal, 14-3-3β titration","[2]; 14-3-3β 1.90735e-9 M, FC-A + CY compound",2 and 4 and 0
same,"FP signal, 14-3-3β titration","[2]; 14-3-3β 1.90735e-9 M, compound 100 μM",-2
same,"FP signal, 14-3-3β titration","[2]; 14-3-3β 3.8147e-9 M, FC-A + CY compound",2 and 1 and -1
same,"FP signal, 14-3-3β titration","[2]; 14-3-3β 3.8147e-9 M, compound 100 μM",2 and 3 and 1
same,"FP signal, 14-3-3β titration",[2]; [3],2 and 1 and 0
same,"FP signal, 14-3-3β titration",[2]; [4],1 (2×) and 4
same,"FP signal, 14-3-3β titration",[2]; [5],7 and 4 and 6
same,"FP signal, 14-3-3β titration",[2]; [6],5 (2×) and 3
same,"FP signal, 14-3-3β titration",[2]; [7],3 and 4 and 5
same,"FP signal, 14-3-3β titration",[2]; [8],3 and 1 (2×)
same,"FP signal, 14-3-3β titration",[2]; [9],6 and 9 (2×)
same,"FP signal, 14-3-3β titration",[2]; [10],5 and 2 (2×)
same,"FP signal, 14-3-3β titration",[2]; [11],10 and 5 and 8
same,"FP signal, 14-3-3β titration",[2]; [12],3 and 6 and 2
same,"FP signal, 14-3-3β titration",[2]; [13],16 and 15 and 11
same,"FP signal, 14-3-3β titration",[2]; [14],7 and 3 and 1
same,"FP signal, 14-3-3β titration",[2]; [15],18 and 25 and 20
same,"FP signal, 14-3-3β titration",[2]; [16],9 and 4 (2×)
same,"FP signal, 14-3-3β titration",[2]; [17],36 and 40 and 38
same,"FP signal, 14-3-3β titration",[2]; [18],9 and 11 and 10
same,"FP signal, 14-3-3β titration",[2]; [19],52 and 57 and 55
same,"FP signal, 14-3-3β titration",[2]; [20],11 (2×) and 13
same,"FP signal, 14-3-3β titration",[2]; [21],75 and 77 and 73
same,"FP signal, 14-3-3β titration",[2]; [22],25 and 27 and 24
same,"FP signal, 14-3-3β titration",[2]; [23],105 (2×) and 102
same,"FP signal, 14-3-3β titration",[2]; [24],44 and 43 and 34
same,"FP signal, 14-3-3β titration",[2]; [25],123 and 125 and 121
same,"FP signal, 14-3-3β titration",[2]; [26],59 and 58 and 51
same,"FP signal, 14-3-3β titration",[2]; [27],141 (2×) and 139
same,"FP signal, 14-3-3β titration",[2]; [28],76 (2×) and 79
same,"FP signal, 14-3-3β titration",[2]; [29],152 and 151 and 156
same,"FP signal, 14-3-3β titration",[2]; [30],97 (2×) and 95
same,"FP signal, 14-3-3β titration",[2]; [31],161 and 159 and 162
same,"FP signal, 14-3-3β titration",[2]; [32],113 and 114 and 116
same,"Fluorescence polarization signal, 14-3-3β titration","[2]; CY compound (100 μM), 14-3-3β concentration 0.00025 M",132 and 131 and 127
same,"Fluorescence polarization signal, 14-3-3β titration","[2]; CY compound (100 μM), 14-3-3β concentration 0.0005 M",146 and 152
same,"Fluorescence polarization signal, 14-3-3β titration","[2]; FC-A + CY compound, 14-3-3β concentration 0.00025 M",166 and 162
same,"Fluorescence polarization signal, 14-3-3β titration","[2]; FC-A + CY compound, 14-3-3β concentration 0.0005 M",175 and 173 and 177
N=C(N)NCCCC1NC(=O)C(CCC(N)=O)NC(=O)C(CCCNC(=N)N)NC(=O)C2CCCN2Cc2ccccc2Sc2ccccc2CNC1=O (centres unmarked) [CY007502],FMP assay signal (Fig5b),[1],13.036 and 27.929 and 39.536 and 44.036 and 44.893 and 22.781
same,"FP signal, 14-3-3β titration",[2]; [3],7 and 2 and -1
same,"FP signal, 14-3-3β titration",[2]; [4],6 and 5
same,"FP signal, 14-3-3β titration",[2]; [5],5 (2×) and 6
same,"FP signal, 14-3-3β titration",[2]; [6],0 and 3 and 4
same,"FP signal, 14-3-3β titration",[2]; [7],12 and 13 and 8
same,"FP signal, 14-3-3β titration",[2]; [8],4 and 5 and 3
same,"FP signal, 14-3-3β titration",[2]; [9],19 and 17 (2×)
same,"FP signal, 14-3-3β titration",[2]; [10],3 (2×) and 5
same,"FP signal, 14-3-3β titration",[2]; [11],30 and 33 and 27
same,"FP signal, 14-3-3β titration",[2]; [12],6 and 5 and 8
same,"FP signal, 14-3-3β titration",[2]; [13],51 and 57 and 45
same,"FP signal, 14-3-3β titration",[2]; [14],8 (2×) and 7
same,"FP signal, 14-3-3β titration",[2]; [15],76 and 79 and 69
same,"FP signal, 14-3-3β titration",[2]; [16],10 and 8 and 12
same,"FP signal, 14-3-3β titration",[2]; [17],99 and 95 and 89
same,"FP signal, 14-3-3β titration",[2]; [18],16 and 15 and 18
same,"FP signal, 14-3-3β titration",[2]; [19],108 (2×) and 110
same,"FP signal, 14-3-3β titration",[2]; [20],24 (2×) and 28
same,"FP signal, 14-3-3β titration",[2]; [21],119 (2×) and 117
same,"FP signal, 14-3-3β titration",[2]; [22],31 and 32 and 33
same,"FP signal, 14-3-3β titration",[2]; [23],126 and 127 and 121
same,"FP signal, 14-3-3β titration",[2]; [24],35 and 40 and 41
same,"FP signal, 14-3-3β titration",[2]; [25],132 and 128 and 129
same,"FP signal, 14-3-3β titration",[2]; [26],49 and 50 and 52
same,"FP signal, 14-3-3β titration",[2]; [27],138 and 136 and 135
same,"FP signal, 14-3-3β titration",[2]; [28],64 and 62 and 65
same,"FP signal, 14-3-3β titration",[2]; [29],143 and 145
same,"FP signal, 14-3-3β titration",[2]; [30],87 and 83 and 85
same,"FP signal, 14-3-3β titration",[2]; [31],156 and 151 and 152
same,"FP signal, 14-3-3β titration",[2]; [32],104 and 106 and 103
same,"FP signal, 14-3-3β titration","[2]; 14-3-3β 0.00025 M, FC-A + CY compound",165 and 159 and 157
same,"FP signal, 14-3-3β titration","[2]; 14-3-3β 0.00025 M, compound 100 μM",119 (2×) and 122
same,"FP signal, 14-3-3β titration","[2]; 14-3-3β 0.0005 M, FC-A + CY compound",177 and 175 and 169
same,"FP signal, 14-3-3β titration","[2]; 14-3-3β 0.0005 M, compound 100 μM",151 and 144 and 146
